The source made the active and inactive calls.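 How the source made its calls: active means caspase luminescence falls with dose and the half-maximal concentration AC50 from the fitted curve is at or below a set limit; inconclusive means flat fit at 30 to 70% signal loss, or invalid fit; inactive means AC50 above the limit, or signal rises instead.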
These compounds were tested on INS-1E cytokine-induced caspase-3/7, Caspase-Glo luminescence, 48 h (assay: inhibitors of cytokine-induced caspase-3/7 activity, dose response, orthogonal assay for beta-cell apoptosis protection project, INS-1E rat cells, luminescence (AID 463206)).

Structure (SMILES) | AC50
O=C(c1cc2sccc2n1Cc1ccc(F)cc1)N1CCN(c2nc3ccccc3s2)CC1 | > 26 µM (inactive)
CCCCCCc1cc2cc(C(=O)Nc3ccccc3)c(=O)oc2cc1O | > 26 µM (inactive)
COc1ccc(NS(=O)(=O)c2ccc(-c3cnc(C4CC4)o3)cc2)cc1OC | > 26 µM (inactive)
O=[N+]([O-])c1cccc(/C=N/n2cnnc2)c1 | > 26 µM (inactive)
CN(c1ccccc1)c1ccc(/C=C/[N+](=O)[O-])cc1 | > 26 µM (inactive)
c1ccc(Nc2nc(NCc3ccco3)c3ccccc3n2)cc1 | 23.7 µM
FC(F)(F)c1nnc2c(Sc3ccccc3)nc3ccc(Cl)cc3n12 | > 26 µM (inactive)
Cc1ccccc1OCc1n(CC(=O)OC2CC(C)CCC2C(C)C)c2ccccc2[n+]1C (stereo not given) | > 26 µM (inactive)
CCCCC(=O)NC(c1ccc(N(CC)CC)cc1)c1ccc2cccnc2c1O (stereo not given) | > 26 µM (inactive)
CCOc1ccc2nc(NC(=O)c3ccccn3)sc2c1 | > 26 µM (inactive)
O=C(/C(=C/c1ccc(Cl)cc1)c1nc2ccccc2[nH]1)c1ccccc1 | > 26 µM (inactive)
CCOC(=O)/C(=C\c1ccc([N+](=O)[O-])cc1)C(=O)c1cc(C(C)=O)c(Nc2ccccc2)s1 | > 26 µM (inactive)
CC(C)c1ccc(/C=C(\c2nc3ccccc3[nH]2)S(=O)(=O)c2ccccc2)cc1 | > 26 µM (inactive)
COc1ccc(C)cc1Nc1n[n+](-c2ccccc2)c(-c2c(Cl)cccc2Cl)s1 | > 26 µM (inactive)
CN(C)c1cc[n+](CC(=O)c2ccc(-c3ccccc3)cc2)cc1 | > 26 µM (inactive)
Cc1ccccc1/C=C/C(=O)c1ccc([N+](=O)[O-])o1 | > 26 µM (inactive)
FC(F)(F)c1nnc(-c2ccccc2)nc1Sc1ccc(Cl)cc1 | > 26 µM (inactive)
CCCOc1ccc(CSc2nc3ccccc3[nH]2)cc1 | > 26 µM (inactive)
Cc1cccc(NC(=O)c2ccc([N+](=O)[O-])s2)c1C | > 26 µM (inactive)
CCN1CCN(CCCNC(=O)c2ccc3c(c2)NC(=O)/C(=C\c2cccc(C)c2)S3)CC1 | 10.3 µM
COCCNC(=O)CSC1=N/C(=C/c2ccc(Cl)c(Cl)c2)C(=O)N1c1ccccc1F | > 26 µM (inactive)
O=[N+]([O-])c1ccc(-[n+]2ccc3ccccc3c2)c([N+](=O)[O-])c1 | > 26 µM (inactive)
COc1ccc2c(c1)[nH]c1c(N3CCN(Cc4ccc5c(c4)OCO5)CC3)ncnc12 | > 26 µM (inactive)
O=C(NCc1ccccn1)c1cc(-c2ccc(Cl)cc2)oc1C(F)(F)F | > 26 µM (inactive)

Structure (SMILES) | AC50
Cc1csc2nc(NC(=O)c3ccccc3)sc(=O)c12 | > 26 µM (inactive)
COc1ccc(-c2cn(-c3ccc(Cl)cc3)c3[n+]2CCCCC3)cc1 | > 26 µM (inactive)
c1csc(-c2csc3ncnc(NCCCN4CCOCC4)c23)c1 | > 26 µM (inactive)
COc1ccc(-c2nn(-c3ccccc3)cc2/C=N/N2C(=O)CSC2=S)cc1 | > 26 µM (inactive)
Cc1ccc2c(c1)Sc1c(ccc3ccccc13)N2 | > 26 µM (inactive)
Cc1c(N/N=C(\C#N)C(=O)c2ccc(Cl)cc2)c(=O)n(-c2ccccc2)n1C | > 26 µM (inactive)
O=C(N/N=C/c1cc(Br)ccc1OC(=O)c1ccc(Br)cc1)c1ccncc1 | > 26 µM (inactive)
CCCCCCCCCCCCCCCC[N+](C)(C)CC | > 26 µM (inactive)
Nc1c(N(CCC2=CCCCC2)C(=O)COc2ccc(F)cc2)c(=O)[nH]c(=O)n1Cc1ccccc1 | > 26 µM (inactive)
CCN(CC)c1ccc(/C=N/N(c2ccccc2)c2ccccc2)c(O)c1 | > 26 µM (inactive)
CCc1ccc2[nH]c(=O)c(C3C(C#N)=C(N)Oc4c3ccc3cccnc43)cc2c1 (stereo not given) | > 26 µM (inactive)
COc1ccccc1N1CCN(Cc2ccc(O)c3ncccc23)CC1 | > 26 µM (inactive)
Cc1ccc(C(=O)N/C(=C\c2ccc(-c3ccc(Cl)cc3)o2)C(=O)NCCCN(C)C)cc1 | 11.9 µM
COc1cc(Cl)c(NC2=CC(=O)C(=O)c3ccccc32)c(OC)c1 | > 26 µM (inactive)
CCN(Cc1ccccc1)C(c1cccs1)c1nnnn1C1CCCCC1 (stereo not given) | > 26 µM (inactive)
O=[N+]([O-])c1ccc(-c2nc3ccc([N+](=O)[O-])cc3[nH]2)cc1 | > 26 µM (inactive)
CCOc1ccc(S(=O)(=O)NCc2ccncc2)cc1 | > 26 µM (inactive)
COc1ccc(/C=N/NC(=O)c2nc(-c3ccccc3)n(-c3ccccc3)n2)c(O)c1 | > 26 µM (inactive)
CCCNC1=C(N(C(C)=O)c2cccc(F)c2)C(=O)c2ccccc2C1=O | > 26 µM (inactive)
C=C(C)C(=O)O[C@H]1C/C(C)=C\C(=O)/C=C(\C)[C@H](O)[C@@H]2OC(=O)C(=C)[C@@H]21 | 3 µM
O=C(Nc1nc(-c2ccccn2)cs1)Nc1ccc(F)cc1F | > 26 µM (inactive)
O=C(CNC(=O)c1ccccc1)N/N=C/c1cc(Br)ccc1O | > 26 µM (inactive)
O=C(NCCCn1ccnc1)c1ccc(N2CCCCCC2)c([N+](=O)[O-])c1 | > 26 µM (inactive)
Cc1ccccc1NC1=C/C(=N\S(=O)(=O)c2cccs2)c2ccccc2C1=O | > 26 µM (inactive)

Structure (SMILES) | AC50
CC(=O)N(Cc1ccc(F)cc1)C1=C(NCCc2ccccc2)C(=O)c2ccccc2C1=O | > 26 µM (inactive)
CC(C)(C)c1cc([N+](=O)[O-])cc(C(C)(C)C)c1O | > 26 µM (inactive)
COc1cnc(-c2ccccn2)nc1N(C)c1ccccc1 | > 26 µM (inactive)
O=[N+]([O-])c1c(Nc2ccccn2)cc(Cl)c2nonc12 | > 26 µM (inactive)
CCOC(=O)N1CCN(c2ncnc3c2[nH]c2ccc(F)cc23)CC1 | > 26 µM (inactive)
O=C(CCCCC(=O)Nc1ccc(F)cc1F)Nc1ccc(F)cc1F | > 26 µM (inactive)
COc1ccc2c(c1OC)C(=O)OC2Nc1nc(-c2ccccc2)cs1 (stereo not given) | 16.1 µM
CC(C)Nc1ccc(Nc2ccccc2)cc1 | > 26 µM (inactive)
Cc1ccc2c(c1)S/C(=C/c1ccc[n+](CCO)c1)N2C | > 26 µM (inactive)
CCC(=O)NC(c1ccc(C)cc1)c1cc([N+](=O)[O-])c2cccnc2c1O (stereo not given) | > 26 µM (inactive)
O=C(Nc1nc(-c2ccccn2)cs1)c1ccc(F)c(S(=O)(=O)N2CCOCC2)c1 | > 26 µM (inactive)
C(#Cc1ccccc1)C[N+]1(CC#Cc2cccc3ccccc23)CCCC1 | > 26 µM (inactive)
CC(C)C[C@H]1CN=C(Nc2ccccc2)N1CC1CCC(C(C)(C)C)CC1 (stereo not given in full) | > 26 µM (inactive)
CC(C)NC(=S)NC(c1ccccc1)(c1ccccc1)c1ccccc1 | > 26 µM (inactive)
c1ccc(-[n+]2nc(Nc3cccc4ccccc34)sc2-c2c3ccccc3cc3ccccc23)cc1 | > 26 µM (inactive)
O=C(NC(c1cccnc1)C(F)(F)F)c1cc(COc2ccc3c(c2)CCCC3)on1 (stereo not given) | > 26 µM (inactive)
CCC(C)(C)c1ccc(OCCCC[n+]2ccc(C)cc2)c(C(C)(C)CC)c1 | > 26 µM (inactive)
CN(C)S(=O)(=O)c1cccc(N=C2NN=C(c3ccccc3)CS2)c1 | > 26 µM (inactive)
CC(C)Oc1ccc(C(CCN)C2CCCCC2)cc1 (stereo not given) | > 26 µM (inactive)
c1ccc(C2(Cn3ccc4ccccc43)OCCO2)cc1 | > 26 µM (inactive)
Oc1ccc(CN2CCCc3ccccc32)c2cccnc12 | > 26 µM (inactive)
CCOC(=O)c1sc(SC)c2c1CCC/C2=N/OC | > 26 µM (inactive)

From PubChem BioAssay AID463206 (Broad Institute, 2010)
